Counter-ions that a name gives are not always drawn.
Assay: in vitro
Conditions: rat, gh3-tre-luc cells

O=C1CCC(=O)N1CO [N-Hydroxymethylsuccinimide]
CC50 at 24 h (AC50 (uM) modified / 1000): > 50 µM

C=CC(=O)NC(C)C [N-Isopropylacrylamide]
CC50 at 24 h (AC50 (uM) modified / 1000): > 90 µM

CC(C)Nc1ccccc1 [N-Isopropylaniline]
CC50 at 24 h (AC50 (uM) modified / 1000): > 90 µM

CC(C)N1C(=O)c2ccccc2C1=O [N-Isopropylphthalimide]
CC50 at 24 h (AC50 (uM) modified / 1000): > 90 µM

CN1CCCC1=O [N-Methyl-2-pyrrolidone]
CC50 at 24 h (AC50 (uM) modified / 1000): > 90 µM

CNc1ccc([N+](=O)[O-])cc1 [N-Methyl-4-nitroaniline]
CC50 at 24 h (AC50 (uM) modified / 1000): 54.8 µM

CN1C(=O)c2ccc([N+](=O)[O-])cc2C1=O [N-Methyl-4-nitrophthalimide]
CC50 at 24 h (AC50 (uM) modified / 1000): > 90 µM

CNC(C)=O [N-Methylacetamide]
CC50 at 24 h (AC50 (uM) modified / 1000): > 90 µM

CNc1ccccc1 [N-Methylaniline]
CC50 at 24 h (AC50 (uM) modified / 1000): > 90 µM

CNC(=O)c1ccccc1 [N-Methylbenzamide]
CC50 at 24 h (AC50 (uM) modified / 1000): > 90 µM

CNCc1ccccc1 [N-Methylbenzylamine hydrochloride]
CC50 at 24 h (AC50 (uM) modified / 1000): > 50 µM

CCCCCCCCN(C)CCCCCCCC [N-Methyldioctylamine]
CC50 at 24 h (AC50 (uM) modified / 1000): > 90 µM

CNCCO [N-Methylethanolamine]
CC50 at 24 h (AC50 (uM) modified / 1000): > 90 µM

CNC(=S)NN [N-Methylhydrazinecarbothioamide]
CC50 at 24 h (AC50 (uM) modified / 1000): 52.5 µM

CCCCCCCCNC [N-Methyloctan-1-amine]
CC50 at 24 h (AC50 (uM) modified / 1000): > 90 µM

CN1C(=O)c2ccccc2C1=O [N-Methylphthalimide]
CC50 at 24 h (AC50 (uM) modified / 1000): > 90 µM

CN1CCCC1 [N-Methylpyrrolidine]
CC50 at 24 h (AC50 (uM) modified / 1000): > 90 µM

CN(N=O)c1ccc([N+](=O)[O-])cc1 [N-Nitroso-N-methyl-4-nitroaniline]
CC50 at 24 h (AC50 (uM) modified / 1000): > 90 µM

CCN(C)N=O [N-Nitroso-N-methylethylamine]
CC50 at 24 h (AC50 (uM) modified / 1000): > 90 µM

CN(N=O)C(N)=O [N-Nitroso-N-methylurea]
CC50 at 24 h (AC50 (uM) modified / 1000, Tox21_110001=Tox21_302850, viability, 1 nM T3 present, 24 h): > 90 µM

CCOC(=O)N(C)N=O [N-Nitroso-N-methylurethane]
CC50 at 24 h (AC50 (uM) modified / 1000): > 90 µM

CC(=O)CN(CC(C)=O)N=O [N-Nitrosobis(2-oxopropyl)amine]
CC50 at 24 h (AC50 (uM) modified / 1000): > 90 µM

CCCCN(CCCC)N=O [N-Nitrosodibutylamine]
CC50 at 24 h (AC50 (uM) modified / 1000, Tox21_110001=Tox21_202334, viability, 1 nM T3 present, 24 h): > 90 µM

O=NN(CCO)CCO [N-Nitrosodiethanolamine]
CC50 at 24 h (AC50 (uM) modified / 1000, Tox21_110001=Tox21_200283, viability, 1 nM T3 present, 24 h): > 90 µM

CCN(CC)N=O [N-Nitrosodiethylamine]
CC50 at 24 h (AC50 (uM) modified / 1000, Tox21_110001=Tox21_201255, viability, 1 nM T3 present, 24 h): > 90 µM

CN(C)N=O [N-Nitrosodimethylamine]
CC50 at 24 h (AC50 (uM) modified / 1000, Tox21_110001=Tox21_201663, viability, 1 nM T3 present, 24 h): > 90 µM

O=NN(c1ccccc1)c1ccccc1 [N-Nitrosodiphenylamine]
CC50 at 24 h (AC50 (uM) modified / 1000, Tox21_110001=Tox21_201457, viability, 1 nM T3 present, 24 h): > 90 µM

CCCN(CCC)N=O [N-Nitrosodipropylamine]
CC50 at 24 h (AC50 (uM) modified / 1000, Tox21_110001=Tox21_201860, viability, 1 nM T3 present, 24 h): > 90 µM

O=NN1CCCCCC1 [N-Nitrosohexamethyleneimine]
CC50 at 24 h (AC50 (uM) modified / 1000): > 90 µM

O=NN1CCOCC1 [N-Nitrosomorpholine]
CC50 at 24 h (AC50 (uM) modified / 1000, Tox21_110001=Tox21_202132, viability, 1 nM T3 present, 24 h): > 100 µM | CC50 at 24 h (AC50 (uM) modified / 1000, Tox21_110001=Tox21_302867, viability, 1 nM T3 present, 24 h): > 90 µM

O=NN1CCNCC1 [N-Nitrosopiperazine]
CC50 at 24 h (AC50 (uM) modified / 1000): > 100 µM

O=NN1CCCCC1 [N-Nitrosopiperidine]
CC50 at 24 h (AC50 (uM) modified / 1000, Tox21_110001=Tox21_200267, viability, 1 nM T3 present, 24 h): > 90 µM

O=NN1CCCC1 [N-Nitrosopyrrolidine]
CC50 at 24 h (AC50 (uM) modified / 1000, Tox21_110001=Tox21_202356, viability, 1 nM T3 present, 24 h): > 100 µM | CC50 at 24 h (AC50 (uM) modified / 1000, Tox21_110001=Tox21_302913, viability, 1 nM T3 present, 24 h): > 90 µM

COc1ccc2c3c1O[C@H]1[C@@H](O)C=C[C@H]4[C@@H](C2)NCC[C@@]341 [N-Norcodeine hydrochloride]
CC50 at 24 h (AC50 (uM) modified / 1000, Tox21_110001=Tox21_112824, viability, 1 nM T3 present, 24 h): > 100 µM

Oc1ccc2c3c1O[C@H]1[C@@H](O)C=C[C@H]4[C@@H](C2)NCC[C@@]341 [N-Normorphine hydrochloride]
CC50 at 24 h (AC50 (uM) modified / 1000, Tox21_110001=Tox21_112862, viability, 1 nM T3 present, 24 h): > 100 µM

c1ccc2sc(SN3CCOCC3)nc2c1 [N-Oxydiethylenebenzothiazole-2-sulfenamide]
CC50 at 24 h (AC50 (uM) modified / 1000): > 50 µM

OCCN(CCO)c1ccccc1 [N-Phenyldiethanolamine]
CC50 at 24 h (AC50 (uM) modified / 1000): > 90 µM

ONc1ccccc1 [N-Phenylhydroxylamine]
CC50 at 24 h (AC50 (uM) modified / 1000): > 100 µM

C=CN1CCCC1=O [N-Vinyl-2-pyrrolidone]
CC50 at 24 h (AC50 (uM) modified / 1000): > 90 µM

CCCCCCCCCCCC(=O)NCCCN(C)C [N-[3-(Dimethylamino)propyl]dodecanamide]
CC50 at 24 h (AC50 (uM) modified / 1000): 18 µM

C=C(C)C(=O)NCCCN(C)C [N-[3-(Dimethylamino)propyl]methacrylamide]
CC50 at 24 h (AC50 (uM) modified / 1000): > 90 µM

CO[Si](CCCNc1ccccc1)(OC)OC [N-[3-(Trimethoxysilyl)propyl]aniline]
CC50 at 24 h (AC50 (uM) modified / 1000): > 90 µM

CO[Si](CCCNCCN)(OC)OC [N-[3-(Trimethoxysilyl)propyl]ethane-1,2-diamine]
CC50 at 24 h (AC50 (uM) modified / 1000): > 90 µM

O=C(N[C@@H]1N=C(c2ccccc2F)c2cccc3c2N(CC3)C1=O)c1cc2ccccc2[nH]1 [N-[(3R)-1-(2-Fluorophenyl)-4-oxo-3,4,6,7-tetrahydro[1,4]diazepino[6,7,1-hi]indol-3-yl]-1H-indole-2-carboxamide]
CC50 at 24 h (AC50 (uM) modified / 1000): > 50 µM

O=C(O)C[C@H](NC(=O)OCc1ccccc1)C(=O)O [N-[(Benzyloxy)carbonyl]-L-aspartic acid]
CC50 at 24 h (AC50 (uM) modified / 1000): > 90 µM

Cc1ccc(S(=O)(=O)N[C@@H](CCCCN)C(=O)CCl)cc1 [N-alpha-p-Tosyl-L-lysine chloromethyl ketone hydrochloride]
CC50 at 24 h (AC50 (uM) modified / 1000): 15 µM

CNC(=O)C(c1ccccc1)c1ccccc1 [N-methyl-alpha-phenylbenzeneacetamide]
CC50 at 24 h (AC50 (uM) modified / 1000): > 90 µM

CC(C)(C)NSc1nc2ccccc2s1 [N-tert-Butyl-2-benzothiazolesulfenamide]
CC50 at 24 h (AC50 (uM) modified / 1000): > 90 µM

S=C(S)NCCNC(=S)S [Nabam-sodium]
CC50 at 24 h (AC50 (uM) modified / 1000): > 90 µM

COc1ccc2cc(CCC(C)=O)ccc2c1 [Nabumetone]
CC50 at 24 h (AC50 (uM) modified / 1000): > 20 µM

NC(=O)c1ccc[n+]([C@@H]2O[C@H](COP(=O)([O-])OP(=O)(O)OC[C@H]3O[C@@H](n4cnc5c(N)ncnc54)[C@H](O)[C@@H]3O)[C@@H](O)[C@H]2O)c1 [Nadide]
CC50 at 24 h (AC50 (uM) modified / 1000): > 20 µM

CC1CCc2c(N3CCC(O)CC3)c(F)cc3c(=O)c(C(=O)O)cn1c23 (stereo not drawn) [Nadifloxacin]
CC50 at 24 h (AC50 (uM) modified / 1000): > 50 µM

N=C(N)c1ccc2cc(OC(=O)c3ccc(N=C(N)N)cc3)ccc2c1 [Nafamostat mesylate]
CC50 at 24 h (AC50 (uM) modified / 1000): > 50 µM

CCOc1ccc2ccccc2c1C(=O)N[C@@H]1C(=O)N2[C@@H]1SC(C)(C)[C@@H]2C(=O)O [Nafcillin sodium monohydrate]
CC50 at 24 h (AC50 (uM) modified / 1000): > 20 µM

CC(C)(Oc1ccc(C2CCCc3ccccc32)cc1)C(=O)O (stereo not drawn) [Nafenopin]
CC50 at 24 h (AC50 (uM) modified / 1000): > 50 µM

CCN(CC)CCOC(=O)[C@H](Cc1cccc2ccccc12)C[C@H]1CCCO1 [Nafronyl oxalate]
CC50 at 24 h (AC50 (uM) modified / 1000): > 20 µM

CN(C/C=C/c1ccccc1)Cc1cccc2ccccc12 [Naftifine hydrochloride]
CC50 at 24 h (AC50 (uM) modified / 1000): 25 µM

COc1ccccc1N1CCN(CC(O)COc2cccc3ccccc23)CC1 (stereo not drawn) [Naftopidil]
CC50 at 24 h (AC50 (uM) modified / 1000): 23.4 µM

Oc1ccc2c3c1O[C@H]1[C@@H](O)CC[C@@]4(O)[C@@H](C2)N(CC2CCC2)CC[C@]314 [Nalbuphine]
CC50 at 24 h (AC50 (uM) modified / 1000): > 50 µM

COP(=O)(OC)OC(Br)C(Cl)(Cl)Br (stereo not drawn) [Naled]
CC50 at 24 h (AC50 (uM) modified / 1000, Tox21_110001=Tox21_201641, viability, 1 nM T3 present, 24 h): 48.7 µM | CC50 at 24 h (AC50 (uM) modified / 1000, Tox21_110001=Tox21_300845, viability, 1 nM T3 present, 24 h): 49.1 µM

CCn1cc(C(=O)O)c(=O)c2ccc(C)nc21 [Nalidixic acid]
CC50 at 24 h (AC50 (uM) modified / 1000): > 90 µM

C=C1CC[C@@]2(O)[C@H]3Cc4ccc(O)c5c4[C@@]2(CCN3CC2CC2)[C@H]1O5 [Nalmefene]
CC50 at 24 h (AC50 (uM) modified / 1000): > 50 µM

C=CCN1CC[C@]23c4c5ccc(O)c4O[C@H]2[C@@H](O)C=C[C@H]3[C@H]1C5 [Nalorphine hydrochloride]
CC50 at 24 h (AC50 (uM) modified / 1000, Tox21_110001=Tox21_112614, viability, 1 nM T3 present, 24 h): > 50 µM

C=CC[N+]1(C)CC[C@]23c4c5ccc(O)c4O[C@H]2C(=O)CC[C@@]3(O)[C@H]1C5 (stereo partly drawn) [Naloxone methyliodide]
CC50 at 24 h (AC50 (uM) modified / 1000, Tox21_110001=Tox21_112025, viability, 1 nM T3 present, 24 h): > 50 µM

C=CCN1CC[C@]23c4c5ccc(O)c4O[C@H]2C(=O)CC[C@@]3(O)[C@H]1C5 [Naloxone]
CC50 at 24 h (AC50 (uM) modified / 1000): > 50 µM

CC(=O)N[C@@H](CCC(N)=O)C(=O)O [Nalpha-Acetyl-L-glutamine]
CC50 at 24 h (AC50 (uM) modified / 1000): > 50 µM
